Data: US9795139B2, “Molecules having pesticidal utility, and intermediates, compositions, and processes, related thereto” (priority 2015, dated 2017)

Tests used:
Assay type in all cases: in vivo
[1] = test system: Beet Armyworm (Spodoptera exigua, LAPHEG); assay: Bioassay on Beet Armyworm (BAW), 128-well diet tray assay; conditions: 168 h, 50 μg/cm^2 on artificial diet, second instar larvae, 25° C., five to seven days, average of eight wells, read-out: BAW % Control (or Mortality) rating
Procedure, shortened: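 Artificial diet surface-treated with 50 μg/cm^2 test molecule in 90:10 acetone-water, dried, then infested with one to five second instar larvae per well. Held covered and vented at 25° C., 14:10 light-dark for five to seven days; percent mortality recorded per well and averaged over eight wells.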

[2] = test system: Yellow Fever Mosquito (Aedes aegypti, AEDSAE); conditions: about 1 day-old larvae, 96-well plate from 4000 ppm DMSO master, 3 days at room temperature
Procedure, shortened: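 Aedes aegypti larvae (about 1 day old) in liver-powder water were added to plates dispensed from DMSO master plates (4000 ppm stock) diluted with 90:10 water/acetone; six replicate plates per master. Lidded plates were held at room temperature for 3 days, then each well was scored for mortality.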

[3] = test system: Cabbage Looper (Trichoplusia ni, TRIPNI); assay: Bioassay on Cabbage Looper (CL), 128-well diet tray assay; conditions: 168 h, 50 μg/cm^2 on artificial diet, second instar larvae, 25° C., five to seven days, average of eight wells, read-out: CL % Control (or Mortality) rating
Procedure, shortened: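 Mortality of second instar larvae exposed to diet coated with 50 μg/cm^2 compound (acetone-water 90:10 vehicle, dried); 25° C., 5–7 days.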

[4] = test system: Green Peach Aphid (Myzus persicae, MYZUPE); assay: Bioassay on Green Peach Aphid (GPA), foliar spray on cabbage seedlings; conditions: 72 h, 200 ppm foliar spray on cabbage seedlings, three days, Abbott corrected % control, read-out: GPA % Control (or Mortality) rating
Description: Certain molecules disclosed in this document were tested against GPA using procedures described in the following example. In the reporting of the results, the “GPA & YFM Rating Table” was used (See Table Section).
Cabbage seedlings grown in 3-inch pots, with 2-3 small (3-5 cm) true leaves, were used as test substrate. The seedlings were infested with 20-50 GPA (wingless adult and nymph stages) one day prior to chemical application. Four pots with individual seedlings were used for each treatment. Test molecules (2 mg) were dissolved in 2 mL of acetone/methanol (1:1) solvent, forming stock solutions of 1000 ppm test molecule.
The stock solutions were diluted 5× with 0.025% Tween 20 in water to obtain the solution at 200 ppm test molecule. A hand-held aspirator-type sprayer was used for spraying a solution to both sides of […] leaves until runoff. Reference plants (solvent check) were sprayed with the diluent only containing 20% by volume of acetone/methanol (1:1) solvent. Treated plants were held in a holding room for three days at approximately 25° C. and ambient relative humidity (RH) prior to grading. Evaluation was conducted by counting the number of live aphids per plant under a microscope. Percent control was measured using Abbott's correction formula (W. S. Abbott, “A Method of Computing the Effectiveness of an Insecticide” J. Econ. Entomol. 18 (1925), pp. 265-267) as follows. Corrected % Control=100*(X−Y)/X where X=No. of live aphids on solvent check plants and Y=No. of live aphids on treated plants. The results are indicated in the table entitled “Table ABC: Biological Results” (See Table Section).

| SMILES | mortality at 50 µg/cm2 [1] | YFM % Control (or Mortality) rating [2] | mortality at 50 µg/cm2 [3] | mortality at 200 ppm [4] |
| --- | --- | --- | --- | --- |
| O=C(NC1CCSC1)c1cc(NC(=O)[C@H]2[C@H](c3cc(Cl)c(Cl)c(Cl)c3)C2(Cl)Cl)ccc1Cl (relative stereo) [Molecule F8, trans-2-chloro-5-(2,2-dichloro-3-(3,4,5-trichlorophenyl)cyclopropanecarboxamido)-N-(tetrahydrothiophen-3-yl)benzamide] | 50 to 100% | A (80-100) | 50 to 100% | 0% |
| O=C(NC1CC(F)(F)C1)c1cc(NC(=O)[C@H]2[C@H](c3ccc(F)c(Cl)c3)C2(Cl)Cl)ccc1Cl (relative stereo) [PF7, trans-2-Chloro-5-(2,2-dichloro-3-(3-chloro-4-fluorophenyl)cyclopropane-1-carboxamido)-N-(3,3-difluorocyclobutyl)benzamide] | 50 to 100% | D (No activity noticed in this bioassay) | 50 to 100% | 80 to 100% |
| O=C(NC1CSC1)c1cc(NC(=O)[C@H]2[C@H](c3ccc(Cl)c(Cl)c3)C2(Cl)Cl)ccc1Cl (relative stereo) [Molecule F16, trans-2-Chloro-5-(2,2-dichloro-3-(3,4-dichlorophenyl)cyclopropanecarboxamido)-N-(thietan-3-yl)benzamide] | 50 to 100% | A (80-100) | 50 to 100% | 80 to 100% |
| N#CC1(NC(=O)c2cc(NC(=O)[C@H]3[C@H](c4cc(Cl)cc(Cl)c4)C3(Cl)Cl)ccc2Cl)CC1 (relative stereo) [Molecule F4, trans-2-Chloro-N-(1-cyanocyclopropyl)-5-(2,2-dichloro-3-(3,5-dichlorophenyl)cyclopropanecarboxamido)benzamide] | 50 to 100% | A (80-100) | 50 to 100% | 80 to 100% |
| O=C(NC1CC(F)(F)C1)c1cc(NC(=O)[C@H]2[C@H](c3cc(Cl)cc(Br)c3)C2(Cl)Cl)ccc1Cl (relative stereo) [PF8, trans-5-(3-(3-Bromo-5-chlorophenyl)-2,2-dichlorocyclopropane-1-carboxamido)-2-chloro-N-(3,3-difluorocyclobutyl)benzamide] | 50 to 100% | D (No activity noticed in this bioassay) | 50 to 100% | 80 to 100% |
| N#CC1(NC(=O)c2cc(NC(=O)C3C(c4ccc(Cl)c(Cl)c4)C3(Cl)Cl)ccc2Cl)CCC1 (stereo not drawn) [Molecule F14, trans-2-Chloro-N-(l-cyanocyclobutyl)-5-(2,2-dichloro-3-(3,4-dichlorophenyl)cyclopropanecarboxamido)benzamide] | 50 to 100% | A (80-100) | 50 to 100% | 0 to 80% |
| O=C(NC1CC(F)(F)C1)c1cc(NC(=O)[C@H]2[C@H](c3cccc(C(F)(F)F)c3)C2(Cl)Cl)ccc1Cl (relative stereo) [Molecule F19, trans-2-Chloro-5-(2,2-dichloro-3-(3-(trifluoromethyl)phenyl)cyclopropanecarboxamido)-N-(3,3-difluorocyclobutyl)benzamide] | 50 to 100% | B (More than 0-Less than 80) | 50 to 100% | 80 to 100% |
| O=C(NC1CC(F)(F)C1)c1cc(NC(=O)[C@H]2[C@H](c3ccc(Cl)c(Cl)c3)C2(Cl)Cl)ccc1Cl (relative stereo) [Molecule F9, trans-2-Chloro-5-(2,2-dichloro-3-(3,4-dichlorophenyl)cyclopropanecarboxamido)-N-(3,3-difluorocyclobutyl)benzamide] | 50 to 100% | A (80-100) | 50 to 100% | 80 to 100% |
| O=C(NC1CCC1)c1cc(NC(=O)[C@H]2[C@H](c3ccc(Cl)c(Cl)c3)C2(Cl)Cl)ccc1Cl (relative stereo) [Molecule F41, trans-2-Chloro-N-cyclobutyl-5-(2,2-dichloro-3-(3,4-dichlorophenyl)cyclopropanecarboxamido)benzamide] | 50 to 100% | A (80-100) | 50 to 100% | 80 to 100% |
| O=C(NC1CSC1)c1cc(NC(=O)[C@H]2[C@H](c3cc(Cl)cc(Cl)c3)C2(Cl)Cl)ccc1Cl (relative stereo) [Molecule F15, trans-2-Chloro-5-(2,2-dichloro-3-(3,5-dichlorophenyl)cyclopropanecarboxamido)-N-(thietan-3-yl)benzamide] | 50 to 100% | A (80-100) | 50 to 100% | 80 to 100% |
| N#Cc1cc(Cl)cc([C@H]2[C@H](C(=O)Nc3ccc(Cl)c(C(=O)NC4(C#N)CC4)c3)C2(Cl)Cl)c1 (relative stereo) [Molecule F78, trans-2-Chloro-N-(1-cyanocyclopropyl)-5-(2,2-dichloro-3-(3-chloro-5-cyanophenyl)cyclopropane-1-carboxamido)benzamide] | 50 to 100% | D (No activity noticed in this bioassay) | 50 to 100% | 0 to 80% |
| O=C(NC1CC(F)(F)C1)c1cc(NC(=O)[C@H]2[C@H](c3cc(Cl)cc(Cl)c3)C2(Cl)Cl)ccc1Cl (relative stereo) [Molecule F5, trans-2-Chloro-5-(2,2-dichloro-3-(3,5-dichlorophenyl)cyclopropanecarboxamido)-N-(3,3-difluorocyclobutyl)benzamide] | 50 to 100% | A (80-100) | 50 to 100% | 80 to 100% |
